For assay [1], the system named is CB1 receptor. Particulars: ref Hill et al., cited from earlier work.
The target of assay [2] is cannabinoid CB1 receptor (Rattus norvegicus, UniProt P20272). Briefly: CB1 receptor binding assay. Format: in vivo. Particulars: for effect on Bmax of the CB1 receptor: imipramine alone.
Assay [3] deals with endocannabinoids AEA and 2-AG. Briefly: Plasma endocannabinoid content. Particulars: imipramine 10 mg/kg, 21 days; p > 0.05. Format: in vivo, rat.
The target of assay [4] is T1, fatty acid amide hydrolase (FAAH) (Rattus norvegicus, UniProt P97612).
T1 sequence (P97612 1-579): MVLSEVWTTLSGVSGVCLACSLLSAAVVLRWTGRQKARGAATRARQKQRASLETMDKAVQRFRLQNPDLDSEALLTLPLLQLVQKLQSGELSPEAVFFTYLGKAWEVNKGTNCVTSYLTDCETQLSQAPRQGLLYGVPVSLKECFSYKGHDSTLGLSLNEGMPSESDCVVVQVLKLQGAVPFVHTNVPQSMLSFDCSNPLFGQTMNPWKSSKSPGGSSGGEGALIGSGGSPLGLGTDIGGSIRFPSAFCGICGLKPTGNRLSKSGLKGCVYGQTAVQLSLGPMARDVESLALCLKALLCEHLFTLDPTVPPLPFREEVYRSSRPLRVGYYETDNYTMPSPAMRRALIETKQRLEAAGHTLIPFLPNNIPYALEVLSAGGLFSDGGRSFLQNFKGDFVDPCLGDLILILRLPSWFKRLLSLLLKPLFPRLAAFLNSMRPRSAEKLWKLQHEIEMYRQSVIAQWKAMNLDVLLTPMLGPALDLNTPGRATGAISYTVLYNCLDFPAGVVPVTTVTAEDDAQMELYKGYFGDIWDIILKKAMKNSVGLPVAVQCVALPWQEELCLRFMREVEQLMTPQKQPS
Briefly: Fatty acid amide hydrolase activity assay. As to conditions: for effect on Vmax of FAAH: combination of CUS and imipramine, p < 0.05; for Km: read-out: binding affinity (Km) of fatty acid amide hydrolase for anandamide. The class given is in vivo.

Assay [5] relates to endocannabinoids AEA and 2-AG. Briefly: Brain tissue endocannabinoid content. As to conditions: imipramine alone; any brain region examined.

For orientation: Km means the concentration of substrate that gives half-maximal velocity.

Read-outs that look alike come from different tables or passages of the source.

cannabinoid CB1 receptor, sequence (P20272 whole entry): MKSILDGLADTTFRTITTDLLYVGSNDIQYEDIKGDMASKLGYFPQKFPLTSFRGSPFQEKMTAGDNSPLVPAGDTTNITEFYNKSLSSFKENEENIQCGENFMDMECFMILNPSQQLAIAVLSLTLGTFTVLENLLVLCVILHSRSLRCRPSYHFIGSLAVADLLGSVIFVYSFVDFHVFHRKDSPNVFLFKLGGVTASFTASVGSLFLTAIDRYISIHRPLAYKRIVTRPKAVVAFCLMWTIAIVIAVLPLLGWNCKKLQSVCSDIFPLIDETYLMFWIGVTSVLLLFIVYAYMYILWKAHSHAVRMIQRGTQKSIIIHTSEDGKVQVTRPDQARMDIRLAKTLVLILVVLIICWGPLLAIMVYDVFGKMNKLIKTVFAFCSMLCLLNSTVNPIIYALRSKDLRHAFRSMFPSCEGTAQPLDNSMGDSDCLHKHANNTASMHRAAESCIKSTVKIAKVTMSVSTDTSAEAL

On to `C[C@]12C[C@H](O)[C@H]3[C@@H](CCC4=CC(=O)CC[C@@]43C)[C@@H]1CC[C@@H]2C(=O)CO` [corticosterone], for which, in assay [1] (hippocampus, 21 days administration, absence of stress, 2008a), the “effect on CB1 receptor binding and protein expression” value is recorded as “comparable reduction”.

With `CNCCCN1c2ccccc2CCc2ccccc21` [desipramine], the “effect on CB1 receptor binding” value in assay [1] (hippocampus of unstressed rats, 2006) is given as “up-regulation”. Further, in assay [1] (hypothalamus, unstressed rats, chronic treatment, 2006), the “effect on CB1 receptor agonist binding site density” value is “increases”.

Take `CN(C)CCCN1c2ccccc2CCc2ccccc21` [imipramine]: the “effect on Bmax of the CB1 receptor (increase)” value in assay [2] (amygdala, CUS and imipramine combined, p > 0.05) was “did not occur”. Moreover, the “effect on Bmax of the CB1 receptor” value in assay [2] (amygdala, p < 0.05) was “increase”; in assay [2] (ventral striatum, p < 0.01), “significant reductions”. In assay [2] (hippocampus, imipramine 10 mg/kg, 21 days (ANOVA main effect)), the “effect on CB1 receptor agonist binding site density (Bmax)” value is “unaffected”. In assay [2] (hypothalamus, CUS and imipramine together vs control, p > 0.05), the “effect on Bmax for [3H]CP55940 binding to the CB1 receptor” value is “no significant difference”. The “effect on CB1 receptor binding site density (Bmax)” value in assay [2] (midbrain, imipramine 10 mg/kg, 21 days, p < 0.05) is reported as “significant reduction”. Moreover, the “effect on agonist binding site density (Bmax) of the CB1 receptor” value in assay [2] (prefrontal cortex, imipramine 10 mg/kg, 21 days (ANOVA main effect)) was “no effect”. Also, in assay [2] (ventral striatum, CUS and imipramine concurrently, p > 0.05), the “effect on Bmax of the CB1 receptor (reduction)” value is “not seen”. Moreover, the “effect on plasma 2-AG content” value in assay [3] is recorded as “unaffected”. In assay [3], the “effect on plasma AEA content” value is given as “neither an effect”. For the same molecule, the “effect on maximal hydrolytic activity (Vmax) of FAAH” value in assay [4] (imipramine alone, any brain region examined) is recorded as “no effects”. Besides, the “effect on Vmax of FAAH” value in assay [4] (midbrain) and in assay [4] (ventral striatum) was “increased” each time. The Michaelis constant (Km) came out at 0.95 nM in assay [4] (Amygdala, CON/IMI (no stress, imipramine 10 mg/kg, 21 days)); 0.53 nM in assay [4] (Amygdala, CUS/IMI (21 days CUS + imipramine 10 mg/kg)); 0.8 nM in assay [4] (Hippocampus, CON/IMI (no stress, imipramine 10 mg/kg, 21 days)); 0.71 nM in assay [4] (Hippocampus, CUS/IMI (21 days CUS + imipramine 10 mg/kg)); 0.44 nM in assay [4] (Hypothalamus, CON/IMI (no stress, imipramine 10 mg/kg, 21 days)); 0.55 nM in assay [4] (Hypothalamus, CUS/IMI (21 days CUS + imipramine 10 mg/kg)). Also, the Km in assay [4] (Midbrain, CON/IMI (no stress, imipramine 10 mg/kg, 21 days)) was 0.6 nM; in assay [4] (Midbrain, CUS/IMI (21 days CUS + imipramine 10 mg/kg)), 0.61 nM; in assay [4] (Prefrontal Cortex, CON/IMI (no stress, imipramine 10 mg/kg, 21 days)) it was 0.65 nM; in assay [4] (Prefrontal Cortex, CUS/IMI (21 days CUS + imipramine 10 mg/kg)), 0.46 nM; in assay [4] (Ventral Striatum, CON/IMI (no stress, imipramine 10 mg/kg, 21 days)), 0.37 nM; in assay [4] (Ventral Striatum, CUS/IMI (21 days CUS + imipramine 10 mg/kg)) it was 0.69 nM. Further, the “effect on tissue AEA content” value in assay [5] is reported as “no effect”.
